From BigSolDB 2.1

NC(=O)c1ccccc1
solubility (mole fraction)
Settings | 283.15 K | 288.15 K | 293.15 K | 298.15 K | 303.15 K | 308.15 K | 313.15 K | 318.15 K | 323.15 K
in ethanol | 0.041 | 0.0478 | 0.0567 | 0.0652 | 0.0761 | 0.0859 | 0.102 | 0.122 | 0.142
in ethyl acetate | 0.0217 | 0.024 | 0.0281 | 0.0325 | 0.0381 | 0.0453 | 0.0527 | 0.0618 | 0.0717
in methanol | 0.061 | 0.0692 | 0.08 | 0.088 | 0.104 | 0.123 | 0.138 | 0.162 | 0.186
in n-propanol | 0.0329 | 0.0399 | 0.0471 | 0.0552 | 0.0653 | 0.0754 | 0.0892 | 0.105 | 0.126
